Assay results taken from patent publication US20220370543A1, “METHODS OF TREATMENT FOR MODIFYING HEMODYNAMICS” (EBI ANTI SEPSIS B.V., priority 2019, published 2022).
“Also recorded” adds a separate entry of the source. Read-outs that look alike come from different tables or passages of the source. Peptide text beside a SMILES is read from it.

How the values were obtained:
[1] = Solubility measurements / aggregation points of AQGV salts
Source text: At first attempts were made to mix a solution of the free base and an acid in order to achieve a concentrated DMSO solution of the salt and subsequently dilute this in water in order to determine solubility. […] It was decided to determine the solubility of the salts required by dilution of known amount of salts (not soluble) till a clear solution is obtained.

[2] = test system: patients undergoing on-pump coronary artery bypass grafting (CABG); assay: EASI phase II study: safety, adverse events; type: in vivo, human
Description: During cardiac surgery, 180 patients received (double-blinded, placebo-controlled, randomized) 90 mg/kg/hour EA-230 or placebo. The primary endpoint was safety. Efficacy was assessed by immunomodulation (plasma interleukin (IL)-6 concentrations), renal function (glomerular filtration rate using iohexol and creatinine [GFRiohexol, eGFRMDRD] and the incidence of acute kidney injury [AKI, RIFLE criteria]), cardiovascular effects (fluid balance, vasoactive agents) and general outcome (length-of-stay).
A prospective, randomized, double-blind, placebo-controlled study was performed in which 180 elective patients, undergoing on-pump coronary artery bypass grafting, with or without concomitant valve surgery, were enrolled. Patients were randomized in a 1:1 ratio and received either EA-230, 90 mg/kg/hour, or a placebo. These were infused at the start of the surgical procedure until the end of the use of the cardiopulmonary bypass. The main focus in this first-in-patient study was on safety and tolerability of EA-230. The primary efficacy endpoint was the modulation of the inflammatory response by EA-230 quantified as the change in interleukin-6 plasma concentrations after surgery. A key secondary endpoint was the effect of EA-230 on renal function.
The present study was a single-center, prospective, double-blind, placebo-controlled, randomized, single-dose phase II study. It has an adaptive design to evaluate the safety and immunomodulatory effects of EA-230 in patients undergoing on-pump cardiac surgery for coronary artery bypass grafting (CABG) with or without concomitant valve surgery. 180 eligible patients were included and were randomized to receive either active or placebo treatment in a 1:1 ratio. This was a first-in-patient safety and tolerability study, of which the primary efficacy objective was to assess the immunomodulatory effects of EA-230. The key-secondary efficacy endpoint was the effect of EA-230 on renal function. This study was described in accordance with the Standard Protocol Items: Recommendations for Interventional Trial (SPIRIT) guidelines, and registered at clinicaltrials.gov under number NCT03145220.
(§1) Intravenous infusion of EA-230, 90 mg/kg/hour, or placebo, was initiated at the moment of first surgical incision using an automated infusion pump. Infusion rate was set at 250 ml/hour, and infusion was continued until cessation of the CPB, or after 4 hours of continuous infusion, whichever comes first.
All AEs were judged by the investigators with regard to severity (“mild, moderate, or severe”) according to Common Terminology Criteria for Adverse Events guidelines 4.030 and their perceived relation to the study drug (“definitely, probably, possibly, or unrelated/unlikely to be related”). SAEs or SUSARs include death, life-threatening disease, persistent and/or significant disability and/or incapacity, and hospitalization and/or prolongation of inpatient hospitalization.

[3] = EASI phase II study: pharmacokinetics; type: in vivo; settings: human; for Cmax: in vivo, iv, 90 mg/kg, Phase II trial, 90 mg/kg/hour i.v. infusion
Description: as §1

[4] = 90 mg/kg/hour i.v. during CABG surgery

## Nc1ncnc2c1ncn2[C@@H]1O[C@H](COP(=O)(O)O)[C@@H](O)[C@H]1O [adenosine-monophosphate]
[1]
  Clear solution on adding 0.9% NaCl: no clear solution could be obtained

## O=C(O)/C=C\C(=O)O [maleic acid]
[1]; 0.9% NaCl
  Solubility compared to AQGV-Ac: lower solubility

## CC(C)[C@H](NC(=O)CNC(=O)[C@H](CCC(N)=O)NC(=O)[C@H](C)N)C(=O)O [EA-230, AQGV] (H-AQGV-OH)
[2]; [4]
  Adverse events compared with placebo: less (serious) adverse events and less mayor clinical adverse events
  Patients suffering from (adverse) fluid retention compared with placebo: significantly less patients suffering from fluid retention; also recorded: significant reduction of adverse fluid retention
[2]; EASI-study, N = 91
  AE of mild intensity: (%) of patients: (83.5) %
  AE of mild intensity: e (number of events): 188
  AE of mild intensity: n (number of patients experiencing the event): 76
  AE of moderate intensity: (%) of patients: (24.2) %
  AE of moderate intensity: e (number of events): 23
  AE of moderate intensity: n (number of patients experiencing the event): 22
  AE of severe intensity: (%) of patients: (5.5) %
  AE of severe intensity: e (number of events): 6
  AE of severe intensity: n (number of patients experiencing the event): 5
  Anemia: (%) of patients: (5.5) %
  Anemia: e (number of events): 5
  Anemia: n (number of patients experiencing the event): 5
  Any AE: (%) of patients: (85.7) %
  Any AE: n (number of patients experiencing the event): 78
  Any SAE: (%) of patients: (13.2) %
  Any SAE: e (number of events): 23
  Any SAE: n (number of patients experiencing the event): 12
  Any SUSAR: (%) of patients: (0) %
  Any SUSAR: e (number of events): 0
  Any SUSAR: n (number of patients experiencing the event): 0
  Blood and lymphatic system disorders, Overall: (%) of patients: (5.5) %
  Blood and lymphatic system disorders, Overall: e (number of events): 6
  Blood and lymphatic system disorders, Overall: n (number of patients experiencing the event): 5
  Delirium: (%) of patients: (5.5) %
  Delirium: e (number of events): 5
  Delirium: n (number of patients experiencing the event): 5
  Fluid retention: (%) of patients: (2.2) %
  Fluid retention: e (number of events): 2
  Gastrointestinal disorders, Overall: (%) of patients: (23.1) %
  Gastrointestinal disorders, Overall: e (number of events): 27
  Gastrointestinal disorders, Overall: n (number of patients experiencing the event): 21
  Hemorrhagic diathesis: (%) of patients: (1.1) %
  Hemorrhagic diathesis: e (number of events): 1
  Hemorrhagic diathesis: n (number of patients experiencing the event): 1
  Infections and infestations, Overall: (%) of patients: (14.3) %
  Infections and infestations, Overall: e (number of events): 15
  Infections and infestations, Overall: n (number of patients experiencing the event): 13
  Metabolism and nutrition disorders, Overall: (%) of patients: (11) %
  Metabolism and nutrition disorders, Overall: e (number of events): 10
  Metabolism and nutrition disorders, Overall: n (number of patients experiencing the event): 10
  Nausea: (%) of patients: (16.5) %
  Nausea: e (number of events): 15
  Nausea: n (number of patients experiencing the event): 15
  Psychiatric disorders, Overall: (%) of patients: (9.9) %
  Psychiatric disorders, Overall: e (number of events): 9
  Psychiatric disorders, Overall: n (number of patients experiencing the event): 9
  Renal and urinary disorders, Overall: (%) of patients: (4.4) %
  Renal and urinary disorders, Overall: e (number of events): 4
  Renal and urinary disorders, Overall: n (number of patients experiencing the event): 4
[2]; continuous infusion 90 mg/kg/hour up to 4 hours, elective CABG surgery
  Safety and tolerability: safe and No safety concerns emerged and well tolerated and showed an excellent safety profile
[3]
  Time to clearance from the circulation when infusion is terminated: 5 to 10 min
[3]; read-out: Arterial Cmax, range
  Cmax: 12500 to 57500 ng/mL
[3]; read-out: Mean arterial Cmax
  Cmax: 30500 ng/mL
[3]; read-out: Mean venous Cmax
  Cmax: 68400 ng/mL
[3]; read-out: Venous Cmax, range
  Cmax: 19600 to 113000 ng/mL

## CC(C)[C@H](NC(=O)CNC(=O)[C@H](CCC(N)=O)NC(=O)[C@H](C)N)C(=O)O [AQGV-citrate] (H-AQGV-OH)
[1]; 0.9% NaCl, listed as Citric acid
  Behaviour of highly concentrated solution: does not crystallize or aggregate but tend to form a highly viscous solution
[1]; 0.9% NaCl, listed as citric acid
  Behaviour of highly concentrated solution: remains clear but got very thick/viscous
[1]; free base mixed with acid in DMSO
  Solubility in DMSO: did not dissolve in DMSO at all
[1]; in 0.5 mL 0.9% NaCl
  Total amount dissolved (clear solution): 2.75 mmol

## adenosine
[1]; 1 or 0.5 mmol salt, small amounts of 0.9% NaCl added
  Clear solution on adding 0.9% NaCl: no clear solution could be obtained
